From patent US8389523B2, “Substituted quinoxaline and an agrochemical composition thereof” (Kumiai Chemical Industry Co., Ltd., priority 2007, dated 2013)

How the values were obtained:
Assay type in all cases: in vivo
Design in all cases: scale not given here
[1] = tested on: Echinochloa oryzicola Vasing; assay: Herbicidal effects in paddy field soil treatment (Test Example 1); details: for Herbicidal effects index, Echinochloa oryzicola Vasing: paddy field soil treatment, 1000 g of the active ingredient per hectare, wettable powder added dropwise on water surface, 21st day after treatment
Method in brief: (§1)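 Application rate 1000 g a.i./ha, delivered as water-diluted wettable powder onto flooded (3 cm) paddy soil one day after sowing. Plants kept in a greenhouse and evaluated for herbicidal effect on day 21 post-treatment.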

[2] = tested on: Monochoria vaginalis (Burm. f.) Presl var. plantaginea (Roxb.) Solms-Laub.; assay: as above; details: for Herbicidal effects index, Monochoria vaginalis (Burm. f.) Presl var. plantaginea (Roxb.) Solms-Laub.: paddy field soil treatment, 1000 g of the active ingredient per hectare, wettable powder added dropwise on water surface, 21st day after treatment
Method in brief: as §1

[3] = tested on: Scirpus juncoides Roxb. var. ohwianus. T. Koyama; assay: as above; details: for Herbicidal effects index, Scirpus juncoides Roxb. var. ohwianus. T. Koyama: paddy field soil treatment, 1000 g of the active ingredient per hectare, wettable powder added dropwise on water surface, 21st day after treatment
Method in brief: as §1

[4] = tested on: Abutilon theophrasti medicus; assay: Herbicidal effects in upland field soil treatment (Test Example 2); details: 1000 g active ingredient per hectare, 21st day after treatment, criteria of Table 138
Method in brief: (§2)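 Herbicidal effect graded 21 days after treatment, plants kept in greenhouse. Treatment was a soil-surface spray of wettable powder in water, 1000 g a.i./ha in 1000 L/ha, applied after sowing and covering seeds.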

Amaranthus viridis L. [5] = assay: as above; details: 1000 g active ingredient per hectare, 21st day after treatment, criteria of Table 138
Method in brief: as §2

[6] = tested on: Abutilon theophrasti medicus; assay: Herbicidal effects in upland field foliar treatment (Test Example 3); details: criteria of Table 138; for herbicidal effect (index) on Abutilon theophrasti medicus: 1000 g active ingredient per hectare, 14th day after treatment; for herbicidal effects on Abutilon theophrasti medicus: 1000 g of the active ingredient per hectare, 14th day after the treatment, wettable powder
Method in brief: (§3)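 Foliar spray of diluted wettable powder, 1000 g a.i./ha in 1000 L/ha, onto two-week-old greenhouse-grown seedlings in upland field soil. Plants kept in the greenhouse, with effect rated on a criteria scale at day 14.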

Amaranthus viridis L. [7] = assay: as above; details: criteria of Table 138; for herbicidal effect (index) on Amaranthus viridis L.: 1000 g active ingredient per hectare, 14th day after treatment; for herbicidal effects on Amaranthus viridis L.: 1000 g of the active ingredient per hectare, 14th day after the treatment, wettable powder
Method in brief: as §3

[8] = tested on: Echinochloa crus-galli (L.) P. Beauv. var. crus-galli; assay: as above; details: criteria of Table 138; for herbicidal effect (index) on Echinochloa crus-galli (L.) P. Beauv. var. crus-galli: 1000 g active ingredient per hectare, 14th day after treatment; for herbicidal effects on Echinochloa crus-galli (L.) P. Beauv. var. crus-galli: 1000 g of the active ingredient per hectare, 14th day after the treatment, wettable powder
Method in brief: as §3

[9] = paddy field soil treatment (Test Example 1), criteria of Table 138

Structure (SMILES) | Herbicidal effects index, Echinochloa oryzicola Vasing [1] | Herbicidal effects index, Monochoria vaginalis (Burm. f.) Presl var. plantaginea (Roxb.) Solms-Laub. [2] | Herbicidal effects index, Scirpus juncoides Roxb. var. ohwianus. T. Koyama [3] | herbicidal effect (index) on Abutilon theophrasti medicus [4] | herbicidal effect (index) on Amaranthus viridis L. (Amaranthus viridis L. [5]) | herbicidal effect (index) on Abutilon theophrasti medicus [6] | herbicidal effect (index) on Amaranthus viridis L. (Amaranthus viridis L. [7]) | herbicidal effect (index) on Echinochloa crus-galli (L.) P. Beauv. var. crus-galli [8] | herbicidal effects on Abutilon theophrasti medicus [6] | herbicidal effects on Amaranthus viridis L. (Amaranthus viridis L. [7]) | herbicidal effects on Echinochloa crus-galli (L.) P. Beauv. var. crus-galli [8] | herbicidal effect (index) on Echinochloa oryzicola Vasing [1, 9] | herbicidal effect (index) on Monochoria vaginalis (Burm. f.) Presl var. plantaginea (Roxb.) Solms-Laub. [2, 9] | herbicidal effect (index) on Scirpus juncoides Roxb. var. ohwianus. T. Koyama [3, 9]
O=C1CCCC(O)=C1C(=O)c1nc2ccccc2n(-c2ccc3c(c2)OC(F)(F)O3)c1=O [I-207] | 4 | 5 | 5 | 5 | 5 | 5 | 5 | 5 |  |  |  |  |  | 
O=C1CCCC(O)=C1C(=O)c1nc2cccnc2n(Cc2ccccc2F)c1=O [III-108] | 5 | 5 | 5 | 5 | 5 |  |  |  | 5 | 5 | 5 |  |  | 
O=C1CCCC(O)=C1C(=O)c1nc2cccnc2n(-c2ccc(Cl)cc2)c1=O [IV-13] | 5 | 5 | 5 | 5 | 5 |  |  |  | 5 | 5 | 5 |  |  | 
CC1(C)CCC(=O)C(C(=O)c2nc3cccnc3n(-c3cccc(C(F)(F)F)c3)c2=O)=C1O [IV-40] | 5 | 5 | 5 | 5 | 5 |  |  |  | 5 | 5 | 5 |  |  | 
CCc1ccc(-n2c(=O)c(C(=O)C3=C(O)CCCC3=O)nc3ccccc32)cc1 [II-24] | 5 | 5 | 5 | 5 | 5 |  |  |  | 4 | 5 | 5 |  |  | 
COc1cc(OC)nc(-n2c(=O)c(C(=O)C3=C(O)CCCC3=O)nc3ccccc32)n1 [I-197] | 5 | 5 | 5 | 5 | 5 | 5 | 5 | 5 |  |  |  |  |  | 
O=C1CCCC(O)=C1C(=O)c1nc2ccccc2n(-c2ccsc2)c1=O [I-139] | 5 | 5 | 5 | 5 | 5 | 5 | 5 | 4 |  |  |  |  |  | 
COCC(C)n1c(=O)c(C(=O)C2=C(O)CCCC2=O)nc2cccnc21 (stereo not drawn) [III-90] | 5 | 5 | 5 | 5 | 5 |  |  |  | 5 | 5 | 5 |  |  | 
COc1cccc(-n2c(=O)c(C(=O)C3=C(O)CCCC3=O)nc3ccccc32)c1 [II-57] | 5 | 5 | 5 | 5 | 5 |  |  |  | 5 | 5 | 5 |  |  | 
O=C1CCCC(O)=C1C(=O)c1nc2ccccc2n(COCC2CCCO2)c1=O (stereo not drawn) [I-65] | 4 | 5 | 5 | 5 | 5 | 5 | 5 | 4 |  |  |  |  |  | 
O=C1CCCC(O)=C1C(=O)c1nc2cccnc2n(-c2cccc(Cl)c2)c1=O [IV-11] | 5 | 5 | 5 | 5 | 5 |  |  |  | 5 | 5 | 5 |  |  | 
CC1(C)CCC(=O)C(C(=O)c2cnc3ccccc3n2)=C1O [comparative compound D, reference compound] |  |  |  | 0 | 3 |  |  |  | 4 | 1 | 0 | 1 | 4 | 2
O=C1CCCC(O)=C1C(=O)c1nc2ccccc2n(-c2ccc(F)cn2)c1=O [I-176] | 5 | 5 | 5 | 5 | 5 | 5 | 5 | 5 |  |  |  |  |  | 
O=C1CCCC(O)=C1C(=O)c1nc2ccccc2n(-c2ccc(Cl)cc2)c1=O [II-13] | 5 | 5 | 5 | 5 | 5 | 5 | 5 | 5 |  |  |  |  |  | 
O=C1CCCC(O)=C1C(=O)c1nc2ccccc2n(-c2cccc([N+](=O)[O-])c2)c1=O [II-130] | 5 | 5 | 5 | 5 | 5 |  |  |  | 5 | 5 | 5 |  |  | 
